Reference: patent US8802720B2, “Acylamino-substituted fused cyclopentanecarboxylic acid derivatives and their use as pharmaceuticals” (SANOFI, priority 2008, dated 2014)

Biological target: human Edg-2 receptor (LPA1 receptor) (Homo sapiens, UniProt Q92633)
Experiment: Edg-2 receptor inhibition by FLIPR calcium fluorescence measurement (LPA-mediated calcium liberation)
Assay type: cell-based
Conditions: CHO cells stably overexpressing human Edg-2 receptor; LPA 18:1 100 nM; fluo-4 fluorescence; triplicate; read-out: Inhibitory concentrations IC50 for inhibition of the Edg-2 receptor
Description: A) Determination of Edg-2 Receptor Inhibition by Fluorescence Imaging Plate Reader (FLIPR) Measurements
The inhibition of the Edg-2 receptor (LPA1 receptor) by the compounds of the invention was quantified by the inhibitory effect on the LPA-mediated calcium liberation in a cell-based calcium fluorescence assay by use of Chinese hamster ovarian (CHO) cells in which the human Edg-2 receptor was stably overexpressed (FIp-In system, Invitrogen). […] Changes in intracellular calcium were determined by fluorescence measurement with the calcium-sensitive dye fluo-4 (Invitrogen) in a fluorescence imaging plate reader (FLIPR, […]).
CHO cells stably overexpressing the human Edg-2 receptor were seeded (40.000 per well) in black clear-bottomed poly-D-lysine-coated 96 well plates (Becton Dickinson, Biocoat cellware) approximately 18-24 h prior to the experiments. Cells were grown in an incubator at 37° C., 5% carbon dioxide and 95% humidity in cell culture media based on F-12 glutamax media (Gibco, #31765) supplemented with 1% (vol/vol) penicilline/streptomycine (PAN, #P06-07100), 10% (vol/vol) fetal calf serum (FCS, PAA, #A15-151) and hygromycin B (Invitrogen, #10687-010) 300 mg/l (final concentrations).
Prior to the FLIPR experiment, cells were loaded with fluo-4 acetoxymethyl ester (fluo-4 AM, Invitrogen, #F14202) for 60 min in an incubator at 37° C., 5% carbon dioxide and 95% humidity in dye-loading buffer consisting of Hanks' Balanced Salt Solution (HBSS, Invitrogen, #14065049) supplemented with fluo-4 AM at 2 μM (all data given for final concentration), Pluronic® F-127 0.05% (vol/vol) (Invitrogen, #P-3000 MP), HEPES 20 mM (Gibco, #15630), probenecid 2.5 mM (Sigma, #P-8761) and bovine serum albumin 0.05% (BSA, Sigma, #A-6003), adjusted to pH 7.5 with sodium hydroxide. During cell loading, fluo-4 AM is cleaved by intracellular esterase resulting in trapping of the dye fluo-4 within the cells. Loading was terminated by washing of the cells in a cell washer (Tecan Power washer) three times with the buffer specified afore but without fluo-4 AM and BSA. This latter buffer was also used as the buffer in the subsequent cell fluorescence measurements.
The dye-loaded and washed cells were pre-incubated for approximately 5 min with various concentrations of the test compound added as a solution in DMSO (0.3% vol/vol maximum final concentration of DMSO), or with DMSO in the respective concentration only (positive control). Subsequent addition of LPA (18:1, 1-oleoyl-sn-glycerol 3-phosphate; 100 nM final concentration) leads to liberation of intracellular calcium from internal stores resulting in a large transient increase of the fluo-4 fluorescence signal which was monitored over approximately 3 min. The percent inhibition caused by the test compound was determined from the maximum fluorescence response after LPA addition to cells pre-incubated with the compound as compared to the maximum fluorescence response after LPA addition to cells pre-incubated with DMSO only. All fluorescence values were corrected for the baseline fluorescence values obtained with cells which were pre-incubated with DMSO only and were not treated with LPA (baseline control). All measurements were performed in triplicate. From the percent inhibitions the inhibitory concentration IC50 was determined.

human Edg-2 receptor (LPA1 receptor), sequence (Q92633 whole entry): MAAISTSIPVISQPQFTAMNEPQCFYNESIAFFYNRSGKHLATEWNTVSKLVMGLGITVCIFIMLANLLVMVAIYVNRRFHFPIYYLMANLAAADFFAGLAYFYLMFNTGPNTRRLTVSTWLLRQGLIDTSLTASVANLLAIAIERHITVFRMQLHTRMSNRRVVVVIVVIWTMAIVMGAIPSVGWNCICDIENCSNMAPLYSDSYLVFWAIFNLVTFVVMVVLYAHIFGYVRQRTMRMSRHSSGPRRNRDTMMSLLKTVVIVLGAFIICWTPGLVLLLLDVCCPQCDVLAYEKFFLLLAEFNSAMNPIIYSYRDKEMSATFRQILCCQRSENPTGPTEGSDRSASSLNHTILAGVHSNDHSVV

Row | Structure (SMILES) | IC50 [nM]
1 | COc1ccc(C(=O)NC2(C(=O)O)Cc3ccccc3C2)cc1OCCC1CCCN1C (centres unmarked) [Example 64] | 1000 to 30000
2 | COc1ccc(C(=O)NC2(C(=O)O)Cc3cc(Cl)sc3C2)cc1OCCc1cccc(C)c1 (centres unmarked) [Example 100, 2-Chloro-5-[4-methoxy-3-(2-m-tolyl-ethoxy)-benzoylamino]-5,6-dihydro-4H-cyclopenta[b]thiophene-5-carboxylic acid] | < 100
3 | COc1ccc(C(=O)NC2(C(=O)O)Cc3ccccc3C2)cc1NC(=O)Cc1cccc(Cl)c1 [Example 119] | 1000 to 30000
4 | COc1ccc(C(=O)NC2(C(=O)O)Cc3ccccc3C2)cc1OCCc1ccc(C#N)cc1 [Example 26] | 1000 to 30000
5 | COc1ccc(C(=O)NC2(C(=O)O)Cc3ccccc3C2)cc1OCC1C[C@H]2C=C[C@@H]1C2 (some centres unmarked) [Example 87] | 1000 to 30000
6 | COc1ccc(C(=O)NC2(C(=O)O)Cc3ccccc3C2)cc1OCCCc1ccc(Cl)cc1 [Example 62] | 1000 to 30000
7 | COc1ccc(C(=O)NC2(C(=O)O)Cc3ccccc3C2)cc1OCC(C)C [Example 35] | 1000 to 30000
8 | COc1ccc(C(=O)NC2(C(=O)O)Cc3ccccc3C2)cc1OCCC1CCN(Cc2ccccc2)CC1 [Example 66] | 1000 to 30000
9 | COc1ccc(C(=O)NC2(C(=O)O)Cc3ccccc3C2)cc1OCCCCCC(=O)O [Example 84] | 1000 to 30000
10 | COc1ccc(CCCCOc2cc(C(=O)NC3(C(=O)O)Cc4ccccc4C3)ccc2OC)cc1 [Example 60] | 1000 to 30000
11 | Cc1ccc(C(=O)NC2(C(=O)O)Cc3ccccc3C2)cc1OCCc1cccc(Cl)c1 [Example 176, 2-{3-[2-(3-Chloro-phenyl)-ethoxy]-4-methyl-benzoylamino}-indane-2-carboxylic acid] | < 100
12 | COc1ccc(C(=O)NC2(C(=O)O)Cc3ccccc3C2)cc1SCCc1cccc(Cl)c1 [Example 181, 2-{3-[2-(3-Chloro-phenyl)-ethylsulfanyl]-4-methoxy-benzoylamino}-indane-2-carboxylic acid] | < 100
13 | CCc1ccc(C(=O)NC2(C(=O)O)Cc3ccccc3C2)cc1OCCc1cccc(C)c1 [Example 10, 2-[4-Ethyl-3-(2-m-tolyl-ethoxy)-benzoylamino]-indane-2-carboxylic acid] | < 100
14 | CCC1(COc2cc(C(=O)NC3(C(=O)O)Cc4ccccc4C3)ccc2OC)COCOC1 [Example 56] | 1000 to 30000
15 | COc1ccc(C(=O)NC2(C(=O)O)Cc3ccccc3C2)cc1OCCc1cc(C)ccc1F [Example 20] | < 100
16 | COc1ccc(C(=O)NC2(C(=O)O)Cc3ccccc3C2)cc1OCc1cccc(C)c1 [Example 126] | 1000 to 30000
17 | CC(=O)c1ccc(C(=O)NC2(C(=O)O)Cc3ccccc3C2)cc1OCCc1cccc(C)c1 [Example 8, 2-[4-Acetyl-3-(2-m-tolyl-ethoxy)-benzoylamino]-indane-2-carboxylic acid] | 100 to 1000
18 | COc1ccc(C(=O)NC2(C(=O)O)Cc3ccccc3C2)cc1OCc1nccc(Cl)c1OC [Example 52] | 1000 to 30000

The remaining lines, values ahead:

Row | IC50 [nM] | Structure (SMILES)
19 | < 100 | COc1ccc(C(=O)NC2(C(=O)O)Cc3ccccc3C2)cc1OCCc1cc(OC(F)(F)F)ccc1F [Example 355, 2-{3-[2-(2-fluoro-5-trifluoromethoxy-phenyl)-ethoxy]-4-methoxy-benzoylamino}-indane-2-carboxylic acid]
20 | < 100 | COc1ccc(C(=O)NC2(C(=O)O)Cc3ccccc3C2)cc1-c1cc(Cl)cc(C(F)(F)F)c1 [Example 347]
21 | 1000 to 30000 | COc1ccc(C(=O)NC2(C(=O)O)Cc3ccccc3C2)cc1S(=O)(=O)CCc1cccc(C)c1 [Example 183, 2-[4-Methoxy-3-(2-m-tolyl-ethanesulfonyl)-benzoylamino]-indane-2-carboxylic acid]
22 | 100 to 1000 | CCS(=O)(=O)c1cccc(-c2cc(C(=O)NC3(C(=O)O)Cc4ccccc4C3)ccc2OC)c1 [Example 312, 2-[(3′-ethanesulfonyl-6-methoxy-biphenyl-3-carbonyl)-amino]-indane-2-carboxylic acid]
23 | < 100 | COc1ccc(C(=O)NC2(C(=O)O)Cc3ccccc3C2)cc1-c1cncc(C#N)c1 [Example 284]
24 | < 100 | COc1ccc(-c2cc(C(=O)NC3(C(=O)O)Cc4ccccc4C3)ccc2OC)cc1Cl [Example 325]
25 | < 100 | COc1ccc(C(=O)NC2(C(=O)O)Cc3ccccc3C2)cc1-c1cc(Cl)ccc1C [Example 314]
26 | < 100 | COc1ccc(C(=O)NC2(C(=O)O)Cc3ccccc3C2)cc1-c1cc(F)ccc1OC(C)C [Example 335]
27 | 100 to 1000 | COc1ccc(C(=O)NC2(C(=O)O)Cc3ccccc3C2)cc1-c1cncc(Cl)c1 [Example 282, 2-[3-(5-chloro-pyridin-3-yl)-4-methoxy-benzoylamino]-indane-2-carboxylic acid]
28 | < 100 | Cc1ccc(F)c(CCOc2cc(C(=O)NC3(C(=O)O)Cc4ccccc4C3)ccc2C(F)(F)F)c1 [Example 192]
29 | < 100 | COc1ccc(C(=O)NC2(C(=O)O)Cc3ccccc3C2)cc1-c1cc(C)cc(C(C)(C)C)c1 [Example 313]
30 | < 100 | COCc1cccc(-c2cc(C(=O)NC3(C(=O)O)Cc4ccccc4C3)ccc2OC)c1 [Example 315]
31 | < 100 | COc1ccc(C(=O)NC2(C(=O)O)Cc3ccccc3C2)cc1-c1cccc(Cl)c1Cl [Example 293]
32 | < 100 | Cc1cccc(CCOc2cc(C(=O)NC3(C(=O)O)Cc4ccccc4C3)ccc2OCC2CCCCO2)c1 (centres unmarked) [Example 264]
33 | < 100 | Cc1cccc(CCOc2cc(C(=O)NC3(C(=O)O)Cc4ccccc4C3)ccc2OCCF)c1 [Example 268]
34 | 1000 to 30000 | COc1ccc(C(=O)NC2(C(=O)O)Cc3ccccc3C2)cc1-c1ccsc1Cl [Example 329]
35 | < 100 | COc1ccc(C(=O)NC2(C(=O)O)Cc3ccccc3C2)cc1-c1cccc(C)c1 [Example 286]
36 | 1000 to 30000 | COc1ccc(C(=O)NC2(C(=O)O)Cc3ccccc3C2)cc1-c1ccc2c(ccn2C)c1 [Example 330]
37 | < 100 | COc1ccc(C(=O)NC2(C(=O)O)Cc3ccccc3C2)cc1-c1cc(Cl)cc(C)c1F [Example 333]
38 | 1000 to 30000 | COc1ccc(C(=O)NC2(C(=O)O)Cc3ccccc3C2)cc1OCCc1cccc(O)c1 [Example 251, 2-{3-[2-(3-Hydroxy-phenyl)-ethoxy]-4-methoxy-benzoylamino}-indane-2-carboxylic acid]
39 | 100 to 1000 | COc1ccc(C(=O)NC2(C(=O)O)Cc3ccccc3C2)cc1Cc1cccc(C)c1 [Example 244, 2-[4-Methoxy-3-(3-methyl-benzyl)-benzoylamino]-indane-2-carboxylic acid]
40 | < 100 | COc1ccc(C(=O)NC2(C(=O)O)Cc3ccccc3C2)cc1-c1cccc(C#N)c1 [Example 297]
41 | 1000 to 30000 | COc1ccc(C(=O)NC2(C(=O)O)Cc3ccccc3C2)cc1-c1ccccc1CN(C)C [Example 299]
42 | < 100 | COc1ccc(C(=O)NC2(C(=O)O)Cc3ccccc3C2C)cc1OCCc1cccc(C)c1 (centres unmarked) [Example 209, 2-[4-Methoxy-3-(2-m-tolyl-ethoxy)-benzoylamino]-1-methyl-indane-2-carboxylic acid]
43 | 100 to 1000 | COc1ccc(C(=O)NC2(C(=O)O)Cc3ccccc3C2)cc1COCc1cccc(C)c1 [Example 279, 2-[4-Methoxy-3-(3-methyl-benzyloxymethyl)-benzoylamino]-indane-2-carboxylic acid]
44 | < 100 | Cc1cccc(CCOc2cc(C(=O)NC3(C(=O)O)Cc4ccccc4C3)ccc2OCCOC(C)(C)C)c1 [Example 259]
